Reference: ChEMBL document CHEMBL1131989 (Bioorg Med Chem Lett, 1999)

Columns and labels:
Cavia porcellus = organism: Cavia porcellus; assay: Concentration of compound required for evaluating efficacy in guinea pig ileum (GPI); assay type: functional, organism-based
Mus musculus = organism: Mus musculus; assay: Concentration of compound required for evaluating efficacy in mouse vas deferens (MVD); assay type: functional, organism-based
Mu-type opioid receptor = Mu-type opioid receptor (Homo sapiens, UniProt P35372); assay: In vitro binding affinity towards mu opioid receptors was determined using [3H][p-Cl-Phe]- 4] DPDPE or [3H]deltorphin II
[1] = target: Delta-type opioid receptor (Homo sapiens, UniProt P41143); assay: In vitro binding affinity towards Opioid receptor delta 1 was determined using […]
Sequence of Delta-type opioid receptor (P41143 whole entry): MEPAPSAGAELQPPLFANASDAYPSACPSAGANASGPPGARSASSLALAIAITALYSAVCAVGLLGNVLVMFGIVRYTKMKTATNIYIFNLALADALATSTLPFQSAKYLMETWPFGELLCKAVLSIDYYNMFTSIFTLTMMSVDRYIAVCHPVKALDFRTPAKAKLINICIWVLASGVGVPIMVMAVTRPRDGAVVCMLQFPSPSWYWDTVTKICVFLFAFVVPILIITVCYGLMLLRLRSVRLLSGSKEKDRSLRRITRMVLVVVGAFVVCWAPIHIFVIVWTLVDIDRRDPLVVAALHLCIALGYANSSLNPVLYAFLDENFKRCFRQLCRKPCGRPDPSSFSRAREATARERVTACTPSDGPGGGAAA

Sequence of Mu-type opioid receptor (P35372 whole entry): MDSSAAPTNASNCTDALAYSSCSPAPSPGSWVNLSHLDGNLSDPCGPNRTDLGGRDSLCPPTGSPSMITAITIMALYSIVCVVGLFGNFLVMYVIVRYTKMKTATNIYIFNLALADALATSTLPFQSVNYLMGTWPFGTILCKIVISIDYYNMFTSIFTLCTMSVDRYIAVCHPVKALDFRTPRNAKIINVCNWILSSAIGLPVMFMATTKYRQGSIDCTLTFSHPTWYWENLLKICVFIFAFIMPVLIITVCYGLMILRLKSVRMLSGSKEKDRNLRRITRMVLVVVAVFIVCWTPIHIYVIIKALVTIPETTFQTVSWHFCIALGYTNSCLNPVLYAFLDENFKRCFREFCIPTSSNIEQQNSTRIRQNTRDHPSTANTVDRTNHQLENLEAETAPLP

CCCC[C@@H](N)C(=O)NNC(=O)[C@H](Cc1ccccc1)NC(=O)CNC(=O)[C@@H](C)NC(=O)[C@@H](N)Cc1ccc(O)cc1
EC50 (Cavia porcellus): 5.2 nM | EC50 (Mus musculus): 95 nM | IC50 (Mu-type opioid receptor): 5.9 nM | IC50 [1]: 71 nM

C[C@@H](NC(=O)[C@@H](N)Cc1ccc(O)cc1)C(=O)NCC(=O)N[C@@H](Cc1c[nH]c2ccccc12)C(=O)NNC(=O)[C@H](N)Cc1ccccc1
EC50 (Cavia porcellus): 26 nM | EC50 (Mus musculus): 130 nM | IC50 (Mu-type opioid receptor): 8.3 nM | IC50 [1]: 46 nM

CCCC[C@H](N)C(=O)NNC(=O)[C@H](Cc1ccccc1)NC(=O)CNC(=O)[C@@H](C)NC(=O)[C@@H](N)Cc1ccc(O)cc1
EC50 (Cavia porcellus): 24 nM | EC50 (Mus musculus): 20 nM | IC50 (Mu-type opioid receptor): 1.3 nM | IC50 [1]: 21 nM

C[C@@H](NC(=O)[C@@H](N)Cc1ccc(O)cc1)C(=O)NCC(=O)N[C@@H](Cc1ccccc1)C(=O)NNC(=O)[C@H](N)Cc1ccccc1
EC50 (Cavia porcellus): 2.4 nM | EC50 (Mus musculus): 27 nM | IC50 (Mu-type opioid receptor): 0.74 nM | IC50 [1]: 15 nM

C[C@@H](NC(=O)[C@@H](N)Cc1ccc(O)cc1)C(=O)NCC(=O)N[C@@H](Cc1ccccc1)C(=O)NNC(=O)[C@H](N)Cc1ccc(O)cc1
EC50 (Cavia porcellus): 15 nM | EC50 (Mus musculus): 45 nM | IC50 (Mu-type opioid receptor): 1.6 nM | IC50 [1]: 16 nM

C[C@@H](NC(=O)[C@@H](N)Cc1ccc(O)cc1)C(=O)NCC(=O)N[C@@H](Cc1ccccc1)C(=O)NN
EC50 (Cavia porcellus): 90 nM | EC50 (Mus musculus): 290 nM | IC50 (Mu-type opioid receptor): 4.7 nM | IC50 [1]: 230 nM

C[C@@H](NC(=O)[C@@H](N)Cc1ccc(O)cc1)C(=O)NCC(=O)N[C@@H](Cc1ccccc1)C(=O)NNC(=O)[C@H](N)Cc1c[nH]c2ccccc12
EC50 (Cavia porcellus): 7.1 nM | EC50 (Mus musculus): 15 nM | IC50 (Mu-type opioid receptor): 2 nM | IC50 [1]: 29 nM

C[C@@H](NC(=O)[C@@H](N)Cc1ccc(O)cc1)C(=O)NCC(=O)N[C@@H](Cc1ccccc1)C(=O)NNC(=O)[C@@H](N)Cc1ccccc1
EC50 (Cavia porcellus): 9.8 nM | EC50 (Mus musculus): 32 nM | IC50 (Mu-type opioid receptor): 0.88 nM | IC50 [1]: 30 nM

C[C@@H](NC(=O)[C@@H](N)Cc1ccc(O)cc1)C(=O)NCC(=O)N[C@@H](Cc1ccccc1)C(=O)NNC(=O)[C@H](Cc1ccccc1)NC(=O)CNC(=O)[C@@H](C)NC(=O)[C@@H](N)Cc1ccc(O)cc1 [BIPHALIN]
EC50 (Cavia porcellus): 8.8 nM | EC50 (Mus musculus): 27 nM | IC50 (Mu-type opioid receptor): 1.4 nM
